# Laboratory results from article PMC11864979, “First-in-class ultralong-target-residence-time p38α inhibitors as a mitosis-targeted therapy for colorectal cancer” (Nature Cancer, 2025).
# Like-named read-outs stand apart in the source and are kept apart here.
# Assays:
# Assay in all cases: selectivity profiling in a panel of 340 wild-type kinases (Reaction Biology Europe)
# Type in all cases: binding
# 340 wild-type kinases [1] = target: T1, 340 wild-type kinases (Homo sapiens, UniProt Q8N568)
# T1 construct: purchased Reaction Biology Europe
# 340 wild-type kinases [2] = target: T2, 340 wild-type kinases (Homo sapiens, UniProt Q13464)
# T2 construct: purchased Reaction Biology Europe
# 340 wild-type kinases [3] = target: T3, 340 wild-type kinases (Homo sapiens, UniProt Q9Y6E0)
# T3 construct: purchased Reaction Biology Europe
# 340 wild-type kinases [4] = target: T4, 340 wild-type kinases (Homo sapiens, UniProt P42685)
# T4 construct: purchased Reaction Biology Europe
# 340 wild-type kinases [5] = target: T5, 340 wild-type kinases (Homo sapiens, UniProt O00418)
# T5 construct: purchased Reaction Biology Europe
# T5 sequence (O00418 1-725): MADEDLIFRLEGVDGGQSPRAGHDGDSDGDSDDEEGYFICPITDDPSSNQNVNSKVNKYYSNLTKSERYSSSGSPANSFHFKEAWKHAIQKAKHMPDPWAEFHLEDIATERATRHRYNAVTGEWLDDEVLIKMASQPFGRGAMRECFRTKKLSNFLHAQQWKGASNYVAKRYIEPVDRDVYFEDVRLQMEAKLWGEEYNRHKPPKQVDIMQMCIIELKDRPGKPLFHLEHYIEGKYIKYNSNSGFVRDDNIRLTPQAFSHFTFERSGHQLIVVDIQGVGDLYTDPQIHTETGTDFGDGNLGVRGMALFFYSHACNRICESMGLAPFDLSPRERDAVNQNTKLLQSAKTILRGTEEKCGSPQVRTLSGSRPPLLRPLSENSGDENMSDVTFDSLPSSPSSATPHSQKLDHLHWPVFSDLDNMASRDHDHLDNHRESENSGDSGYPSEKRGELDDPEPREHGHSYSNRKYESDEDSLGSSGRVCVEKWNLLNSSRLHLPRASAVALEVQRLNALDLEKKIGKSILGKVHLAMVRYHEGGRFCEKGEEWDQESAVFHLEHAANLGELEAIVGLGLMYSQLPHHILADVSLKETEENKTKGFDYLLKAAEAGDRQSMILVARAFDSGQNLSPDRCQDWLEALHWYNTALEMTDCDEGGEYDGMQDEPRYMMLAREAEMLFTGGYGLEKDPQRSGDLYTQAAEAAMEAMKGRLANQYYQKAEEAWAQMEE
# 340 wild-type kinases [6] = target: T6, 340 wild-type kinases (Homo sapiens, UniProt P29322)
# T6 construct: purchased Reaction Biology Europe
# T6 sequence (P29322 28-1005): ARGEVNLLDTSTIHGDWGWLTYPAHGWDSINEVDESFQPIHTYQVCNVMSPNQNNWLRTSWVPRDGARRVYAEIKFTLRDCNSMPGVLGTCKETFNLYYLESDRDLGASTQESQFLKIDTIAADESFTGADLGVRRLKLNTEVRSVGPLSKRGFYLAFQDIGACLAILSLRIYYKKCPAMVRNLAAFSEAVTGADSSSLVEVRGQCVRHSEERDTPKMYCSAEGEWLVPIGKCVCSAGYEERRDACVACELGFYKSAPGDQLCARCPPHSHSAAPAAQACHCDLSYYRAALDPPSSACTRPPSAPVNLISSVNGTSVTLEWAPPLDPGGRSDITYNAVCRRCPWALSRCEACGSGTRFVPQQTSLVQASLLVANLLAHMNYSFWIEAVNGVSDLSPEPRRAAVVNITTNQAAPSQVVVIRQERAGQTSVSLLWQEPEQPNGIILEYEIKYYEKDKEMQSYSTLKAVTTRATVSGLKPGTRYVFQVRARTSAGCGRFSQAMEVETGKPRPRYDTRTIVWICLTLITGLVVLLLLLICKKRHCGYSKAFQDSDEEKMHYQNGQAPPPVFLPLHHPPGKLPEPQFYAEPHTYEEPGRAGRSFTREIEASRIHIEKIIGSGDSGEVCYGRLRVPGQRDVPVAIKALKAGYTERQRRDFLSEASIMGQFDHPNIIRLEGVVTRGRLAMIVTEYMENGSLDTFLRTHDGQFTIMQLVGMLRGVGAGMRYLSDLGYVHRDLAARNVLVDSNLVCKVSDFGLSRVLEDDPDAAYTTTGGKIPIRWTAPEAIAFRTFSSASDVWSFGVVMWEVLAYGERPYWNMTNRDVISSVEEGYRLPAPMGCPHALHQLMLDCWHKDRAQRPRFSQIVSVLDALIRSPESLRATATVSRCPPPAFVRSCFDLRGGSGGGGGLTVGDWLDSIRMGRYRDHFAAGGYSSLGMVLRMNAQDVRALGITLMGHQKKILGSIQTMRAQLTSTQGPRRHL
# 340 wild-type kinases [7] = target: T7, 340 wild-type kinases (Homo sapiens, UniProt P41240)
# T7 construct: purchased Reaction Biology Europe
# T7 sequence (P41240 whole entry): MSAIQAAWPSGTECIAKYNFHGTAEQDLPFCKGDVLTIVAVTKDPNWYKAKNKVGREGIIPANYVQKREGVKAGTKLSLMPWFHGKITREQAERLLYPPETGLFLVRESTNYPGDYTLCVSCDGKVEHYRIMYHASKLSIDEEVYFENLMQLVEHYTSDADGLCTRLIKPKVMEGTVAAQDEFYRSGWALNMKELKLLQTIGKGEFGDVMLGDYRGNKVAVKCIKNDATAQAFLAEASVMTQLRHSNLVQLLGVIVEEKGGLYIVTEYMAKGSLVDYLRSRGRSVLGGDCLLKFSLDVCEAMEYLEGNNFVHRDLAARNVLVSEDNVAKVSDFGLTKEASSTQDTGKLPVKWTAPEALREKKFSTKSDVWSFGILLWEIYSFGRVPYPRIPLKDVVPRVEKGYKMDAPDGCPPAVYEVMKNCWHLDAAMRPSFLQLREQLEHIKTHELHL
# T3 sequence (Q9Y6E0 whole entry): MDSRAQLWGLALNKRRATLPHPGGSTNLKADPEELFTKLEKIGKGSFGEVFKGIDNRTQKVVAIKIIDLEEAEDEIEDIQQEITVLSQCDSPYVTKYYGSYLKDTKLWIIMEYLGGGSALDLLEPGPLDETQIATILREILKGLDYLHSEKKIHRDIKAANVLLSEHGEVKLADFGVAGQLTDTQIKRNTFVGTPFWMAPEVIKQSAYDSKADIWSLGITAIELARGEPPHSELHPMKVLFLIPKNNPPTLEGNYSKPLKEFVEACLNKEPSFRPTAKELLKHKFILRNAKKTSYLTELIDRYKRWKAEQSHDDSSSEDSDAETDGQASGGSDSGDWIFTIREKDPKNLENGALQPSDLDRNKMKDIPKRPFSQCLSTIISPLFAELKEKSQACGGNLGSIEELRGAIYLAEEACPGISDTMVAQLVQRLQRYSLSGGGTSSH
# T2 sequence (Q13464 whole entry): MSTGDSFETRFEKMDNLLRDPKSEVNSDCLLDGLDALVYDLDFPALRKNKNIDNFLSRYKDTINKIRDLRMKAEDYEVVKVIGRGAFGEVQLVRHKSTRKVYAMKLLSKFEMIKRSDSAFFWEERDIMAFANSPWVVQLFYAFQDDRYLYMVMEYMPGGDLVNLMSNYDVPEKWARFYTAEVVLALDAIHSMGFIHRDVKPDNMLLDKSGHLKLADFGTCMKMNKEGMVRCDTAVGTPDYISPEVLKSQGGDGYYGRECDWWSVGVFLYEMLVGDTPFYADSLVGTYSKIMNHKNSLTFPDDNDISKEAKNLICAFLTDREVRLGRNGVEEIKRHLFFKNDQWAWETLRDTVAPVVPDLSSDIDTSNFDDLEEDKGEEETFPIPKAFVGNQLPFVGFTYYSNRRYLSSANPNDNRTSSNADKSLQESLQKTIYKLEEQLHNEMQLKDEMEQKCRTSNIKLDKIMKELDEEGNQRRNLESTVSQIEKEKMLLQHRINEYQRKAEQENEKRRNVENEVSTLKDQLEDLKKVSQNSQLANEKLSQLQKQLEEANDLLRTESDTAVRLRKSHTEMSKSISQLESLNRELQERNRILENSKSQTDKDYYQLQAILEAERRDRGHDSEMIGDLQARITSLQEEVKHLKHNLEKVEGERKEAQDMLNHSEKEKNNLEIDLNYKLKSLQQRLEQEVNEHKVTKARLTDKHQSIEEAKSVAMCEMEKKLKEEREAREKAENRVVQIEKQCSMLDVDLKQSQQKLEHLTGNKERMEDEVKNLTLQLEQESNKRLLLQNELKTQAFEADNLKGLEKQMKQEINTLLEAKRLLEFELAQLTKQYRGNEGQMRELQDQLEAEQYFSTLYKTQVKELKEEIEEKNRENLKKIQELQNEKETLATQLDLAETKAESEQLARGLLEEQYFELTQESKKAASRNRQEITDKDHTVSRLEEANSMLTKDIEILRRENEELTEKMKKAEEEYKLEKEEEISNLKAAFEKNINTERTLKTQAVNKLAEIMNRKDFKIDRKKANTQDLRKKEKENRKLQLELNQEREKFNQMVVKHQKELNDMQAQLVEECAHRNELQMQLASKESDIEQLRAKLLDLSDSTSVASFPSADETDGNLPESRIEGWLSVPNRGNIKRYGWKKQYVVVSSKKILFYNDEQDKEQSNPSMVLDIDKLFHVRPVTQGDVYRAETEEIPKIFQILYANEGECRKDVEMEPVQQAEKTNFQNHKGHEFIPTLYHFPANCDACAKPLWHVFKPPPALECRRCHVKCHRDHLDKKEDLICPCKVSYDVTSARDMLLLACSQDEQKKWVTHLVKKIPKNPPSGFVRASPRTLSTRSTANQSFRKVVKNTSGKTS
# T1 sequence (Q8N568 whole entry): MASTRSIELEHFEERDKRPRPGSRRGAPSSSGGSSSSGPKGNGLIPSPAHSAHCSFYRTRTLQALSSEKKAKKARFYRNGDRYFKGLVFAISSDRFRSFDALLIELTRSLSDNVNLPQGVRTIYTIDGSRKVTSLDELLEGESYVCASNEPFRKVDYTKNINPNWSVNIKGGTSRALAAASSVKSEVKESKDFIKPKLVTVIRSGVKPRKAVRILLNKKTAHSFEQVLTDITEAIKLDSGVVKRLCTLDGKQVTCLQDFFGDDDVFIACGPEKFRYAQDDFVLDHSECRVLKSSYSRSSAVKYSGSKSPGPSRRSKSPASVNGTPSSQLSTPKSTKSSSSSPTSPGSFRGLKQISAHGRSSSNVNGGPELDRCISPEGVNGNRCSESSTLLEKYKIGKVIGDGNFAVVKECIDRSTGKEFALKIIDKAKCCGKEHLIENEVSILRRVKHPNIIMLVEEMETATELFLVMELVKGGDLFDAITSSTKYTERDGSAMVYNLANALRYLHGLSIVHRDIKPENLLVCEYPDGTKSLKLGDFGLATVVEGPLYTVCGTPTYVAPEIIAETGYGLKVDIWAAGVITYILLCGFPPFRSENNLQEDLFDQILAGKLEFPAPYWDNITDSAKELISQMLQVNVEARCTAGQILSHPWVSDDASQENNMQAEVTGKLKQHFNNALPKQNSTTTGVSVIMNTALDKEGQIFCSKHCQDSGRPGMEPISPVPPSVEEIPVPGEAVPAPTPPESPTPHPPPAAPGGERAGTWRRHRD
# T4 sequence (P42685 whole entry): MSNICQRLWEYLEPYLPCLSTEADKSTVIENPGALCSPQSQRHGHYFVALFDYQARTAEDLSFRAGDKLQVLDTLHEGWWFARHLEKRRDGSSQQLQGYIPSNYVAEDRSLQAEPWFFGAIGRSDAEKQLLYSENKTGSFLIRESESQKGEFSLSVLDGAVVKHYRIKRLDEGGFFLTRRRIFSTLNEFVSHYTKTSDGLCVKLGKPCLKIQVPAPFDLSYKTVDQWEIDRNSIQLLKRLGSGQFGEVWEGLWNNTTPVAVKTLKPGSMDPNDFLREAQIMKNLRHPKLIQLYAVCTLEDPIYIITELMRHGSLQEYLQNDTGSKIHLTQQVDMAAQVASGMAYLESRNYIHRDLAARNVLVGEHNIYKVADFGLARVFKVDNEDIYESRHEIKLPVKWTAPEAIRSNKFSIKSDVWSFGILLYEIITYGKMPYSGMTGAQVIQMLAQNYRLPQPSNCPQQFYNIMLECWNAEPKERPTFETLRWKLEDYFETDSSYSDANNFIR
compound,measurement,setting,value
CNC(=O)c1ccc2c(c1)C(=O)c1ccc(Nc3ccc(F)c(NC(=O)C4CC4)c3)cc1CC2 [Compound 2015],remaining activity at 0.2 µM,"340 wild-type kinases [1]; 0.2 µM 2015, read-out: DCAMKL2 residual activity",102%
same,remaining activity at 1 µM,"340 wild-type kinases [1]; 1 µM 2015, read-out: DCAMKL2 residual activity",86.3%
same,remaining activity at 0.2 µM,"340 wild-type kinases [1]; DCAMKL2, 0.2 µM, read-out: residual activity",102%
same,remaining activity at 1 µM,"340 wild-type kinases [1]; DCAMKL2, 1 µM, read-out: residual activity",86.3%
same,remaining activity at 0.2 µM,"340 wild-type kinases [2]; 0.2 µM 2015, read-out: ROCK1 residual activity",95.1%
same,remaining activity at 1 µM,"340 wild-type kinases [2]; 1 µM 2015, read-out: ROCK1 residual activity",87.2%
same,remaining activity at 0.2 µM,"340 wild-type kinases [2]; ROCK1, 0.2 µM, read-out: residual activity",95.1%
same,remaining activity at 1 µM,"340 wild-type kinases [2]; ROCK1, 1 µM, read-out: residual activity",87.2%
same,remaining activity at 0.2 µM,"340 wild-type kinases [3]; 0.2 µM 2015, read-out: MST3 residual activity",119%
same,remaining activity at 1 µM,"340 wild-type kinases [3]; 1 µM 2015, read-out: MST3 residual activity",117%
same,remaining activity at 0.2 µM,"340 wild-type kinases [3]; MST3, 0.2 µM, read-out: residual activity",119%
same,remaining activity at 1 µM,"340 wild-type kinases [3]; MST3, 1 µM, read-out: residual activity",117%
same,remaining activity at 0.2 µM,"340 wild-type kinases [4]; 0.2 µM 2015, read-out: FRK residual activity",126%
same,remaining activity at 1 µM,"340 wild-type kinases [4]; 1 µM 2015, read-out: FRK residual activity",110%
same,remaining activity at 0.2 µM,"340 wild-type kinases [4]; FRK, 0.2 µM, read-out: residual activity",126%
same,remaining activity at 1 µM,"340 wild-type kinases [4]; FRK, 1 µM, read-out: residual activity",110%
same,remaining activity at 0.2 µM,"340 wild-type kinases [5]; 0.2 µM 2015, read-out: EEF2K residual activity",106%
same,remaining activity at 1 µM,"340 wild-type kinases [5]; 1 µM 2015, read-out: EEF2K residual activity",98.4%
same,remaining activity at 0.2 µM,"340 wild-type kinases [5]; EEF2K, 0.2 µM, read-out: residual activity",106%
same,remaining activity at 1 µM,"340 wild-type kinases [5]; EEF2K, 1 µM, read-out: residual activity",98.4%
same,remaining activity at 0.2 µM,"340 wild-type kinases [6]; 0.2 µM 2015, read-out: EPHA8 residual activity",98.5%
same,remaining activity at 1 µM,"340 wild-type kinases [6]; 1 µM 2015, read-out: EPHA8 residual activity",95.3%
same,remaining activity at 0.2 µM,"340 wild-type kinases [6]; EPHA8, 0.2 µM, read-out: residual activity",98.5%
same,remaining activity at 1 µM,"340 wild-type kinases [6]; EPHA8, 1 µM, read-out: residual activity",95.3%
same,remaining activity at 0.2 µM,"340 wild-type kinases [7]; 0.2 µM 2015, read-out: CSK residual activity",114%
same,remaining activity at 1 µM,"340 wild-type kinases [7]; 1 µM 2015, read-out: CSK residual activity",93.1%
same,remaining activity at 0.2 µM,"340 wild-type kinases [7]; CSK, 0.2 µM, read-out: residual activity",114%
same,remaining activity at 1 µM,"340 wild-type kinases [7]; CSK, 1 µM, read-out: residual activity",93.1%
